Assay results published in PubChem BioAssay AID1259411 (Chemical Carcinogenesis Research Information System (CCRIS), 2018).
Activity calls are given as the source filed them. The rule behind the calls is not given here.

Test system: rodent carcinogenicity bioassays, tumor incidence
Test: CCRIS carcinogenicity studies
In short: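 NCI-built, expert-reviewed records of carcinogenicity and related test outcomes (mutagenicity, tumor promotion/inhibition) compiled from published and report sources, historical span 1985-2011, not updated.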

SMILES	carcinogen call (Species: MOUSE, Strain/Sex: B6C3F1/FEMALE, Route: DERMAL, Dose: 0, 3.6, 6, 10 MG/KG BW IN ACETONE 5 D/WK FOR 103 WK (STUDY DURATION: 103 WK), Dose: 0, 3.6, 6, 10 MG/KG BW IN ACETONE 5 D/WK FOR 103 WK (STUDY DURATION: 103 WK))	carcinogen call (Species: MOUSE, Strain/Sex: B6C3F1/MALE, Route: DERMAL, Dose: 0, 3.6, 6, 10 MG/KG BW IN ACETONE 5 D/WK FOR 103 WK (STUDY DURATION: 103 WK), Dose: 0, 3.6, 6, 10 MG/KG BW IN ACETONE 5 D/WK FOR 103 WK (STUDY DURATION: 103 WK))	carcinogen call (Species: RAT, Strain/Sex: F344/FEMALE, Route: DERMAL, Dose: 0, 36, 60, 100 MG/KG BW IN ACETONE 5 D/WK FOR 104 WK (STUDY DURATION: 106 WK), Dose: 0, 36, 60, 100 MG/KG BW IN ACETONE 5 D/WK FOR 104 WK (STUDY DURATION: 106 WK))	carcinogen call (Species: RAT, Strain/Sex: F344/MALE, Route: DERMAL, Dose: 0, 36, 60, 100 MG/KG BW IN ACETONE 5 D/WK FOR 103 WK (STUDY DURATION: 105 WK), Dose: 0, 36, 60, 100 MG/KG BW IN ACETONE 5 D/WK FOR 103 WK (STUDY DURATION: 105 WK), Tumor Site: Type of Lesion: KIDNEY(RENAL TUBULE): ADENOMA OR CARCINOMA)	carcinogen call (Species: HAMSTER, Strain/Sex: SYRIAN/FEMALE, Route: INTRAPERITONEAL, Dose: 218, 654 MG/KG 1/WK FOR 12 WK (LOW DOSE) OR 6 WK (HIGH DOSE), Tumor Site: Type of Lesion: PANCREAS: CARCINOMA, CARCINOMA (IN SITU), PERITONEAL CAVITY: MESOTHELIOMA;MAMMARY GLAND: CARCINOMA, STOMACH: PAPILLOMA,, Tumor Site: Type of Lesion: PANCREAS: CARCINOMA, CARCINOMA (IN SITU), PERITONEAL CAVITY: MESOTHELIOMA;MAMMARY GLAND: CARCINOMA, STOMACH: PAPILLOMA)	carcinogen call (Species: HAMSTER, Strain/Sex: SYRIAN/MALE, Route: INTRAPERITONEAL, Dose: 218, 654 MG/KG 1/WK FOR 12 WK (LOW DOSE) OR 6 WK (HIGH DOSE), Tumor Site: Type of Lesion: PANCREAS: CARCINOMA, CARCINOMA (IN SITU), STOMACH: PAPILLOMA)
CC1=CC(C)(C)Nc2ccccc21	inactive; negative	inactive; negative	inactive; negative	active; positive	–	–
CN(N=O)C(=O)NCCC[C@H](N)C(=O)O	–	–	–	–	active; positive	active; positive
